Measured values as given in article PMC10743905, “Design, Synthesis, and In Vitro and In Vivo Bioactivity Studies of Hydrazide–Hydrazones of 2,4-Dihydroxybenzoic Acid” (International Journal of Molecular Sciences, 2023).
Values after ≈ are worked out from the molar mass of the structure shown.

Assays:
[1] = test system: Enterococcus faecalis; set-up: method as in PMID 23510516; conditions: cited from earlier work
[2] = test system: MCF-7 cell line; set-up: method as in PMID 34578985; conditions: MCF-7 breast cancer cell line; cited from earlier work
[3] = test system: Staphylococcus aureus MRSA strain; set-up: method as in PMID 23510516; conditions: cited from earlier work
[4] = test system: Pasteurella multocida; set-up: method as in PMID 23510516; conditions: cited from earlier work
[5] = test system: Neisseria gonorrhoeae; set-up: method as in PMID 23510516; conditions: cited from earlier work
[6] = test system: Escherichia coli; set-up: method as in PMID 23510516; conditions: cited from earlier work
[7] = test system: MDA-MB-231 cell line; set-up: method as in PMID 34578985; conditions: MDA-MB-231 breast cancer cell line; cited from earlier work
[8] = test system: Proteus mirabilis ATCC 12453; experiment: Broth microdilution MIC/MBC; assay type: cell-based
Outline: (§1)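 Minimal inhibitory concentrations are determined by broth microdilution following EUCAST and CLSI. DMSO-dissolved compounds are serially halved from 1000 to 0.488 µg/ml final; inocula are 0.5 McFarland.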

[9] = test system: Staphylococcus aureus ATCC 43300; experiment: Broth microdilution MIC/MBC; assay type: cell-based; conditions: Staphylococcus aureus ATCC 43300 (MRSA)
Outline: as §1

[10] = test system: Pseudomonas aeruginosa ATCC 9027; experiment: Broth microdilution MIC/MBC; assay type: cell-based; conditions: ATCC9027
Outline: as §1

[11] = test system: Micrococcus luteus ATCC 10240; experiment: Broth microdilution MIC/MBC; assay type: cell-based
Outline: as §1

[12] = test system: Salmonella typhimurium ATCC 14028; experiment: Broth microdilution MIC/MBC; assay type: cell-based
Outline: as §1

[13] = test system: Staphylococcus aureus ATCC 29213; experiment: Broth microdilution MIC/MBC; assay type: cell-based
Outline: as §1

[14] = test system: Staphylococcus epidermidis ATCC 12228; experiment: Broth microdilution MIC/MBC; assay type: cell-based
Outline: as §1

[15] = test system: Candida albicans ATCC 2091; experiment: Broth microdilution MIC/MFC; assay type: cell-based
Outline: as §1

[16] = test system: Candida krusei ATCC 14243; experiment: Broth microdilution MIC/MFC; assay type: cell-based; conditions: Pichia kudriavzevii, ATCC14243, read-out: MIC
Outline: as §1

[17] = test system: Candida albicans ATCC 10231; experiment: Broth microdilution MIC/MFC; assay type: cell-based
Outline: as §1

[18] = test system: Candida parapsilosis ATCC 22019; experiment: Broth microdilution MIC/MFC; assay type: cell-based; conditions: Lodderomyces parapsilosis, ATCC22019, read-out: MIC
Outline: as §1

[19] = test system: Candida glabrata ATCC 90030; experiment: Broth microdilution MIC/MFC; assay type: cell-based; conditions: Nakaseomyces glabratus, ATCC90030, read-out: MIC
Outline: as §1

[20] = test system: Bacillus subtilis ATCC 6633; experiment: Broth microdilution MIC/MBC; assay type: cell-based
Outline: as §1

[21] = test system: Enterococcus faecalis ATCC 29212; experiment: Broth microdilution MIC/MBC; assay type: cell-based
Outline: as §1

[22] = test system: Klebsiella pneumoniae ATCC 13883; experiment: Broth microdilution MIC/MBC; assay type: cell-based
Outline: as §1

[23] = test system: Escherichia coli ATCC 25922; experiment: Broth microdilution MIC/MBC; assay type: cell-based
Outline: as §1

[24] = test system: Bordetella bronchiseptica ATCC 4617; experiment: Broth microdilution MIC/MBC; assay type: cell-based
Outline: as §1

[25] = test system: Bacillus cereus ATCC 10876; experiment: Broth microdilution MIC/MBC; assay type: cell-based
Outline: as §1

[26] = test system: reference Gram-positive bacteria; experiment: Broth microdilution, summary over the Gram-positive panel; assay type: cell-based; conditions: read-out: MIC
Text: (§2) In vitro antimicrobial activity assays - Methodology
(§3) The examined compounds 1 - 24 were screened in vitro for antibacterial and antifungal activities using the broth microdilution method according to procedure reported earlier by our research group and European Committee on Antimicrobial Susceptibility Testing (EUCAST) and Clinical and Laboratory Standards Institute (CLSI) guidelines against a panel of reference and clinical or saprophytic strains of microorganisms, in-cluding Gram-positive bacteria, Staphylococcus aureus ATCC 43300 (Methicillin Resistant S. aureus – MRSA), Staphylococcus aureus ATCC 29213 (Methicillin Susceptible S. aureus – MSSA), Staphylococcus epidermidis ATCC 12228, Enterococcus faecalis ATCC 29212, Micro-coccus luteus ATCC 10240, Bacillus subtilis ATCC 6633 and Bacillus cereus ATCC 10876), Gram-negative bacteria (Bordetella bronchiseptica ATCC 4617, Escherichia coli ATCC 25922, Klebsiella pneumoniae ATCC 13883, Proteus mirabilis ATCC 12453, Salmonella typhimurium ATCC 14028 and Pseudomonas aeruginosa ATCC 9027) and fungi belonging to yeasts (Can-dida albicans ATCC 10231, Candida albicans ATCC 2091, Candida parapsilosis ATCC 22019, Candida glabrata ATCC 90030 and Candida krusei ATCC 14243). The microorganisms be-longing to ATCC came from American Type Culture Collection, routinely used for the evaluation of antimicrobials. […]
Samples containing examined compounds were dissolved in dimethyl sulfoxide (DMSO). […]
(§4) Subsequently, the MIC (Minimal Inhibitory Concentration) of the compounds was ex-amined by the microdilution broth method, using their two-fold dilutions in Mueller- […]
(§5) Hinton broth or (for bacteria) and RPMI 1640 broth with MOPS (for fungi) prepared in 96-well polystyrene plates. Final concentrations of the compounds ranged from 1000 to 0.488 µg/ml. Microbial suspensions were prepared in 0.85% NaCl with an optical density of 0.5 McFarland standard. Next each bacterial or fungal suspension was added per each well containing broth and various concentrations of the examined compounds. After incuba-

[27] = test system: Gram-negative bacteria; experiment: Broth microdilution, summary over the Gram-negative panel; assay type: cell-based
Text: as §2
as §3, with “antimicrobials. All the used microbial cultures were first subcultured on nu-trient agar or Sabouraud agar at 35°C for 18-24 h or 30°C for 24-48 h for bacteria and fungi,” for “antimicrobials.”
The surface of Mueller-Hinton agar (for bacteria) and RPMI 1640 with MOPS (for fungi) were inoculated with the suspensions of bacterial or fungal species. Microbial suspensions were prepared in sterile saline with an optical density of McFarland standard scale 0.5.
Samples containing examined compounds were dissolved in dimethyl sulfoxide (DMSO).
Furthermore, bacterial and fungal suspensions were put onto Petri dishes with solid me-dia containing 2 mg/mL of the tested compounds followed incubation at 37°C for 24h and 30°C for 48h for bacteria and fungi, respectively. The inhibition of microbial growth was judged by comparison with a control culture prepared without any sample tested. Ciprof-loxacin, vancomycin, nitrofurantoin, cefuroxime, ampicillin or nystatin (Sigma) were used as a reference antibacterial or antifungal compounds, respectively.
as §4, §5

[28] = test system: HepG2 cells; set-up: method as in doi:10.1016/j.cclet.2016.10.020; conditions: standard; cited from earlier work

With O=C(O)c1ccc(O)cc1O [2,4-dihydroxybenzoic acid] as the compound, how does the MIC [1] read?
The MIC was 1000 µg/mL (≈ 6490 µM).

What about the cytotoxicity [2] of the same compound?
Its cytotoxicity is “nontoxic”.

What about the MIC [3] of the same compound?
Its MIC is 500 µg/mL (≈ 3240 µM).

And the MIC [4]?
The MIC was 1000 µg/mL (≈ 6490 µM).

And the MIC [5]?
Its MIC is 1000 µg/mL (≈ 6490 µM).

And the MIC [6]?
The MIC was 1000 µg/mL (≈ 6490 µM).

What about the IC50 [7] of the same compound?
Its IC50 is 4.77 mM.

Which MBC/MIC [8] does the source give for O=C(N/N=C/c1cc(Br)c(O)c(Br)c1)c1ccc(O)cc1O [Compound 17, N-[(3,5-dibromo-4-hydroxyphenyl)methylidene]-2,4-dihydroxybenzohydrazide] here?
Its MBC/MIC is > 1.

What about the MBC ([8]; ATCC12453) of the same compound?
Its MBC is > 1000 µg/mL.

What about the MIC ([8]; ATCC12453) of the same compound?
Its MIC is 1000 µg/mL (≈ 2330 µM).

What about the MBC [9] of the same compound?
Its MBC is > 1000 µg/mL.

And the MBC/MIC [9]?
Its MBC/MIC is > 16.

And the MIC [9]?
Its MIC is 62.5 µg/mL (≈ 145 µM).

What about the MIC [10] of the same compound?
The MIC was > 1000 µg/mL.

What about the MBC/MIC [11] of the same compound?
Its MBC/MIC is > 8.

What about the MBC ([11]; ATCC10240) of the same compound?
The MBC was > 1000 µg/mL.

And the MIC ([11]; ATCC10240, read-out: MIC)?
Its MIC is 125 µg/mL (≈ 291 µM).

What about the MBC/MIC [12] of the same compound?
The MBC/MIC was > 1.

What about the MBC ([12]; Salmonella enterica) of the same compound?
The MBC was > 1000 µg/mL.

And the MIC ([12]; Salmonella enterica)?
The MIC was 1000 µg/mL (≈ 2330 µM).

And the MBC/MIC [13]?
Its MBC/MIC is 32.

And the MBC ([13]; ATCC29213)?
The MBC was > 1000 µg/mL.

What about the MIC ([13]; ATCC29213) of the same compound?
Its MIC is 31.2 µg/mL (≈ 72.7 µM).

And the MBC/MIC [14]?
Its MBC/MIC is > 8.

And the MBC ([14]; ATCC12228)?
Its MBC is > 1000 µg/mL.

And the MIC ([14]; ATCC12228, read-out: MIC)?
Its MIC is 250 µg/mL (≈ 581 µM).

What about the MFC/MIC [15] of the same compound?
The MFC/MIC was > 1.

What about the MFC ([15]; ATCC2091, read-out: MFC) of the same compound?
Its MFC is > 1000 µg/mL.

What about the MIC ([15]; ATCC2091, read-out: MIC) of the same compound?
Its MIC is 1000 µg/mL (≈ 2330 µM).

And the MIC [16]?
The MIC was > 1000 µg/mL.

And the MFC/MIC [17]?
The MFC/MIC was > 1.

And the MFC ([17]; ATCC10231, read-out: MFC)?
The MFC was > 1000 µg/mL.

What about the MIC ([17]; ATCC10231, read-out: MIC) of the same compound?
Its MIC is 1000 µg/mL (≈ 2330 µM).

And the MIC [18]?
The MIC was > 1000 µg/mL.

And the MIC [19]?
The MIC was > 1000 µg/mL.

What about the MBC/MIC [20] of the same compound?
The MBC/MIC was > 8.

What about the MBC ([20]; ATCC6633) of the same compound?
The MBC was > 1000 µg/mL.

What about the MIC ([20]; ATCC6633, read-out: MIC) of the same compound?
The MIC was 125 µg/mL (≈ 291 µM).

And the melting point?
Its melting point is 260 °C.

What about the MBC/MIC [21] of the same compound?
The MBC/MIC was > 1.

And the MBC ([21]; ATCC29212, read-out: MBC)?
Its MBC is > 1000 µg/mL.

And the MIC ([21]; ATCC29212, read-out: MIC)?
The MIC was 500 µg/mL (≈ 1160 µM).

And the MBC/MIC [22]?
Its MBC/MIC is > 1.

And the MBC ([22]; ATCC13883)?
Its MBC is > 1000 µg/mL.

And the MIC ([22]; ATCC13883)?
Its MIC is 1000 µg/mL (≈ 2330 µM).

And the MBC/MIC [23]?
Its MBC/MIC is > 1.

What about the MBC ([23]; ATCC25922) of the same compound?
The MBC was > 1000 µg/mL.

And the MIC ([23]; ATCC25922)?
The MIC was 1000 µg/mL (≈ 2330 µM).

What about the MBC/MIC [24] of the same compound?
Its MBC/MIC is > 1.

What about the MBC ([24]; ATCC4617) of the same compound?
Its MBC is > 1000 µg/mL.

And the MIC ([24]; ATCC4617)?
Its MIC is 1000 µg/mL (≈ 2330 µM).

What about the MBC/MIC [25] of the same compound?
The MBC/MIC was > 4.

And the MBC ([25]; ATCC10876)?
Its MBC is > 1000 µg/mL.

What about the MIC ([25]; ATCC10876, read-out: MIC) of the same compound?
Its MIC is 250 µg/mL (≈ 581 µM).

What about the MIC [26] of the same compound?
The MIC was 15.6 to 1000 µg/mL (≈ 36.3 to 2330 µM).

What about the MBC [27] of the same compound?
The MBC was > 1000 µg/mL.

And the MIC [27]?
Its MIC is 500 to 1000 µg/mL (≈ 1160 to 2330 µM).

With COc1cccc2c1C(=O)c1c(O)c3c(c(O)c1C2=O)C[C@@](O)(C(=O)CO)C[C@@H]3O[C@H]1C[C@H](N)[C@H](O)[C@H](C)O1 [doxorubicin] as the compound, how does the IC50 [28] read?
Its IC50 is 0.006 mM.
